Assay [1] has as its system Mycobacterium tuberculosis H37Rv. Nature of the assay: Mycobacterium tuberculosis H37Rv Inhibition Assay. The assay is classed as cell-based. The note with it: ATCC 25618 / H37Rv, H37Rv strain (ATCC25618), Middlebrook 7H9+ADC, resazurin fluorescence readout. The method, then:
Mycobacterium tuberculosis H37Rv Inhibition Assay
The measurement of the minimum inhibitory concentration (MIC) for each tested compound was performed in 96 wells flat-bottom, polystyrene microtiter plates. Ten two-fold drug dilutions in neat DMSO starting at 400 μM were performed. Five μl of these drug solutions were added to 95 μl of Middlebrook 7H9 medium. (Lines A-H, rows 1-10 of the plate layout). Isoniazid was used as a positive control, 8 two-fold dilution of Isoniazid starting at 160 μgml^−1 was prepared and 5 μl of this control curve was added to 95 μl of Middlebrook 7H9 (Difco catalogue Ref. 271310)+ADC medium (Becton Dickinson Catalogue Ref 211887). (Row 11, lines A-H). Five μl of neat DMSO were added to row 12 (growth and Blank controls).
The inoculum was standardised to approximately 1×10^7 cfu/ml and diluted 1 in 100 in Middlebrook 7H9+ADC medium and 0.025% Tween 80 (Sigma P4780), to produce the final inoculum of H37Rv strain (ATCC25618). One hundred μl of this inoculum was added to the entire plate but G-12 and H-12 wells (Blank controls). All plates were placed in a sealed box to prevent drying out of the peripheral wells and they were incubated at 37° C. without shaking for six days. […] Fluorescence was measured (Spectramax M5 Molecular Devices, Excitation 530 nm, Emission 590 nm) after 48 hours to determine the MIC value. […]
Background: The colour change of resazurin is a common sign of viable cells or microbes.

Assay [2] in a line: Whole-cell antimicrobial activity assay, broth microdilution (CLSI M7-A7). It is filed as cell-based. Particulars: against a strain of at least one of the organisms listed; tested in at least one exemplified salt form; dilutions 0.016 to 16 mcg/mL; read-out: MIC (minimum inhibitory concentration). The method, then: Whole-cell antimicrobial activity was determined by broth microdilution using the Clinical and Laboratory Standards Institute (CLSI) recommended procedure, Document M7-A7, “Methods for Dilution Susceptibility Tests for Bacteria that Grow Aerobically”. The compounds were tested in serial two-fold dilutions ranging from 0.016 to 16 mcg/mL.
The minimum inhibitory concentration (MIC) was determined as the lowest concentration of compound that inhibited visible growth. A mirror reader was used to assist in determining the MIC endpoint.
Compounds were evaluated against Gram-positive organisms, including Staphylococcus aureus, Streptococcus pneumoniae, Streptococcus pyogenes, Enterococcus faecalis and Enterococcus faecium.
In addition, compounds were evaluated against Gram-negative strains including Haemophilus influenzae, Moraxella catarrhalis, Escherichia coli, Pseudomonas aeruginosa, Proteus mirabilis, Enterobacter cloacae, Enterobacter aerogenes, Klebsiella pneumoniae and Stenotrophomonas maltophilia.
For orientation: In broth dilution the organism is exposed to a series of concentrations in liquid medium.

The record followed here is US20100137353A1, “TRICYCLIC COMPOUNDS AS ANTIBACTERIALS” (GLAXO GROUP LIMITED, priority 2007, published 2010).

Molecules are shown by their SMILES. Where a name gives a salt, the structure may show the parent alone. Some results are limits rather than exact numbers.

Turning to `O=c1ccc2ncc(F)c3c2n1C[C@@]3(O)CN1CCC(NC/C=C/c2ccco2)CC1` [Example 2, (4S)-3-Fluoro-4-[(4-{[(2E)-3-(2-furanyl)-2-propen-1-yl]amino}-1-piperidinyl)methyl]-4-hydroxy-4,5-dihydro-7H-pyrrolo[3,2,1-de]-1,5-naphthyridin-7-one dihydrochloride], the MIC in assay [1] was at most 5.1 µg/mL; in assay [2], at most 2 µg/mL. Turning to `O=c1ccc2ncc(F)c3c2n1C[C@@]3(O)CN1CCC(NC/C=C/c2ccccn2)CC1` [Example 1, (4S)-3-Fluoro-4-hydroxy-4-[(4-{[(2E)-3-(2-pyridinyl)-2-propen-1-yl]amino}-1-piperidinyl)methyl]-4,5-dihydro-7H-pyrrolo[3,2,1-de]-1,5-naphthyridin-7-one dihydrochloride], the MIC in assay [2] was at most 2 µg/mL.
